Test results taken from publication PMC5458078, “Global mapping of CARM1 substrates defines enzyme specificity and substrate recognition” (Nature Communications, 2017).

tested on: MCF7 CARM1 KO cells; experiment: Quantitative MS of ADMA-containing peptides in MCF7 CARM1 KO cells expressing CARM1 28-608 or CARM1 140-608, and in CARM1 KO; type: cell-based, human; conditions: not given

Substance	CARM1 140-608/WT	KO/WT
ANYNFrGMYNQrYHCPVPK	-2.05	-3.002

same assay, conditions: CARM1 140-608 versus WT, difference of mean log2 values

Substance	CARM1 140-608/WT
CDPVPAANGAIrFHCDPTFWAK	-1.543
DVEAATGQDLGSSrYSGK	-0.09015
ErDMQYVQR	0.06744

same assay, conditions: CARM1 140-608 versus WT, mean of three replicates (log2)

Substance	CARM1 140-608/WT
APESPPSADPALVAGPAEEAECPPPRQPQPAQNVLAAPrLR	-0.5501
APrFPSNIIVTNGAAR	-0.8621
ASAPAADPPrYTFAPSVSLNK	-4.581
ATSPrPrAFDGAGSSLGrAPSPrPGPGPLrQQGPPTPFDFLGR	-2.092
DCGTLPNrFVITPR	-0.5335
DQPGTSAVPNLASVGTrLPPPLPQNLLYTVSER	-1.1192
DQPGTSAVPNLASVGTrLPPPLPQNLLYTVSErQPMYSR	-2.641
ErDQLYYECYSDVSVHEEMIADR	-0.3168

same assay, conditions: CARM1 140-608 vs WT, mean of 3 replicates (log2 scale)

Substance	CARM1 140-608/WT
APGPrGSYLGGYSAGR	-0.09328
APGPrGSYLGGYSAGrGIYSR	0.2879
APrSLIPPIPVSPPILAPrLSSGALK	-0.773
EPFLSrDPFHSLK	0.7405
EVVrYLGGSGGAGGR	-0.0149
ErLALAGPQLrPEMSYPDR	-2.2623

same assay, conditions: CARM1 140-608 vs WT, mean of 3 replicates, log2

Substance	CARM1 140-608/WT
APPGGLHAPrLSLEGAAR	-1.8169
APPGGLHAPrLSLEGAArGAAEAK	-2.013
AVDLTKPYQNQQLSIrVPLR	-2.717
DFAFYNPrLQGK	-2.071
EELLrHQLLEK	-4.245
ErLALAAGPALrPDMSYAER	-1.6609

same assay, conditions: CARM1 KO versus WT, difference of mean log2 values

Substance	KO/WT
CDPVPAANGAIrFHCDPTFWAK	-1.494
DVEAATGQDLGSSrYSGK	-0.4514
ErDMQYVQR	1.019

same assay, conditions: KO versus WT, mean of three replicates (log2)

Substance	KO/WT
APESPPSADPALVAGPAEEAECPPPRQPQPAQNVLAAPrLR	-1.431
APrFPSNIIVTNGAAR	-1.771
ASAPAADPPrYTFAPSVSLNK	-6.091
ATSPrPrAFDGAGSSLGrAPSPrPGPGPLrQQGPPTPFDFLGR	-2.635
DCGTLPNrFVITPR	-0.73
DQPGTSAVPNLASVGTrLPPPLPQNLLYTVSER	-4.635
DQPGTSAVPNLASVGTrLPPPLPQNLLYTVSErQPMYSR	-3.343
ErDQLYYECYSDVSVHEEMIADR	-0.6326

same assay, conditions: KO vs WT, mean of 3 replicates (log2 scale)

Substance	KO/WT
APGPrGSYLGGYSAGR	-0.2416
APGPrGSYLGGYSAGrGIYSR	0.5206
APrSLIPPIPVSPPILAPrLSSGALK	-1.927
EPFLSrDPFHSLK	1.534
EVVrYLGGSGGAGGR	0.2966
ErLALAGPQLrPEMSYPDR	-2.989

same assay, conditions: KO vs WT, mean of 3 replicates, log2

Substance	KO/WT
APPGGLHAPrLSLEGAAR	-2.946
APPGGLHAPrLSLEGAArGAAEAK	-2.606
AVDLTKPYQNQQLSIrVPLR	-4.115
DFAFYNPrLQGK	-2.382
EELLrHQLLEK	-5.464
ErLALAAGPALrPDMSYAER	-2.368

same assay, conditions: difference of log2 means, CARM1 140-608 vs WT

Substance	CARM1 140-608/WT
APAGGSLGrALMR	-0.03816
APDEPQQAQVPHVWGWEVAGAPALrLQK	-2.552
AVCSTPLSSSLLGPPGTSALPrLSR	-2.222
DLPLHPrGFLPGHAPFrPLGSLGPrEYFIPGTrLPPPTHGPQEYPPPPAVR	-0.2675
EIrYSLLPFANESGTSAAAEVNR	-1.601
EYFIPGTrLPPPTHGPQEYPPPPAVR	0.04953

same assay, conditions: difference of log2 means, KO vs WT

Substance	KO/WT
APAGGSLGrALMR	0.3587
APDEPQQAQVPHVWGWEVAGAPALrLQK	-3.114
AVCSTPLSSSLLGPPGTSALPrLSR	-3.255
DLPLHPrGFLPGHAPFrPLGSLGPrEYFIPGTrLPPPTHGPQEYPPPPAVR	-2.443
EIrYSLLPFANESGTSAAAEVNR	-3.011
EYFIPGTrLPPPTHGPQEYPPPPAVR	-1.295

same assay, conditions: log2 scale ratio, mean of n = 3

Substance	CARM1 140-608/WT	KO/WT
APPSFPPPAASrGGLGGTR	-0.3832	0.1973
ATSVLPrYGPPCLFK	-1.277	-3.4878
CPADNPGLVQAQPrVPLTPTR	-3.3817	-4.345
DGLTPVPPLAPAPrPPSSGLPAVLNPrPTLTPGrLPTPTLGTArAPMPTPTLVrPLLK	-0.2727	-4.325
ELSHPPLYrLPLLENAETPQ	-1.659	-3.498
EPLVATNLPGrGQLQK	-0.7114	-0.7768

same assay, conditions: mean, CARM1 140-608 versus WT (log2 scale)

Substance	CARM1 140-608/WT
APVFPGrGSYSNR	0.1704
APVFPGrGSYSNr	0.2637
APVFPGrGSYSNrGNYNR	0.3143
ASrGrGGLGPSWASANSGSGGSrGK	0.01356
AYGQQYWGQPGNrGGYRNFYDR	-0.3814
AYGQQYWGQPGNrGGYrNFYDR	-0.223
ELAPrAHVLSK	-1.733
EVYQQQQYGSGGrGNR	-0.0375

same assay, conditions: mean, CARM1 KO versus WT (log2 scale)

Substance	KO/WT
APVFPGrGSYSNR	0.1127
APVFPGrGSYSNr	0.3482
APVFPGrGSYSNrGNYNR	-0.1859
ASrGrGGLGPSWASANSGSGGSrGK	0.5944
AYGQQYWGQPGNrGGYRNFYDR	1.342
AYGQQYWGQPGNrGGYrNFYDR	0.1923
ELAPrAHVLSK	-2.404
EVYQQQQYGSGGrGNR	0.5359

same assay, conditions: ratio on log2 scale, mean of 3 replicates

Substance	CARM1 140-608/WT	KO/WT
APPVrYCIPGER	-3.736	-5.161
AQPFAQPPGPWPLSSPGPrLVFNR	-2.181	-4.994
CAGFLEPTWLAAPPrLARPPR	-0.2739	-1.902
CAGFLEPTWLAAPPrLArPPrFYEAGEELTGPGAVAAAR	-2.314	-3.713
CrQPAPPTSQPPrAQPFAQPPGPWPLSSPGPrLVFNR	-1.684	-3.117
DPFSQALSrCQLQQAAALNAQHK	-1.585	-2.1
DYFPPGDFPGPPPAPFAMrNVYPPrGFPPYLPPrPGFFPPPPHSEGR	-0.7489	-2.577
EGAEGVNGGEESVNLNDADEGFSSGASLSSQPIGTKPSSSSQrGSLR	-0.2709	-0.04765

tested on: MCF7 cells; experiment: Quantitative nanoLC-MS/MS (TMT) of ADMA-containing peptides, CARM1 KO vs parental; type: cell-based, human; design: Fold change KO/WT: scale not given here; conditions: ADMA-containing peptide, CARM1 knockout (KO) vs wild type (WT) MCF7 cells; 6-plex TMT experiment #1; three biological replicates each; sheet "MCF7"

Substance	Fold change KO/WT
APAGGSLGrALMR	-0.2145
APDEPQQAQVPHVWGWEVAGAPALrLQK	-2.912
APESPPSADPALVAGPAEEAECPPPRQPQPAQNVLAAPrLR	-1.431
ASAPAADPPrYTFAPSVSLNK	-4.884
AVCSTPLSSSLLGPPGTSALPrLSR	-3.255
DCGTLPNrFVITPR	-0.2619
DLPLHPrGFLPGHAPFrPLGSLGPrEYFIPGTrLPPPTHGPQEYPPPPAVR	-1.638
EYFIPGTrLPPPTHGPQEYPPPPAVR	-1.126

same assay, conditions: ADMA-containing peptide, MCF7, CARM1 knockout (KO1-3) vs wild type (WT1-3), TMT 6-plex experiment #1

Substance	Fold change KO/WT
ANYNFrGMYNQrYHCPVPK	-3.002
APPSFPPPAASrGGLGGTR	0.1973
ATSVLPrYGPPCLFK	-3.4878
CPADNPGLVQAQPrVPLTPTR	-4.345
DGLTPVPPLAPAPrPPSSGLPAVLNPrPTLTPGrLPTPTLGTArAPMPTPTLVrPLLK	-3.645
ELSHPPLYrLPLLENAETPQ	-3.498
EPLVATNLPGrGQLQK	-0.7768

same assay, conditions: CARM1 KO vs wild type MCF7 cells, 3 biological replicates each

Substance	Fold change KO/WT
CDPVPAANGAIrFHCDPTFWAK	-1.494
DVEAATGQDLGSSrYSGK	0.2995
ErDMQYVQR	1.019

same assay, conditions: MCF7, CARM1 KO (KO1-KO3) vs wild type (WT1-WT3)

Substance	Fold change KO/WT
APGPrGSYLGGYSAGR	-0.1976
APGPrGSYLGGYSAGrGIYSR	0.2541
APrFPSNIIVTNGAAR	-1.771
APrSLIPPIPVSPPILAPrLSSGALK	-1.927
ATSPrPrAFDGAGSSLGrAPSPrPGPGPLrQQGPPTPFDFLGR	-2.635
DQPGTSAVPNLASVGTrLPPPLPQNLLYTVSER	-4.596
DQPGTSAVPNLASVGTrLPPPLPQNLLYTVSErQPMYSR	-3.343
EPFLSrDPFHSLK	2.308
EVVrYLGGSGGAGGR	0.2966
ErDQLYYECYSDVSVHEEMIADR	-0.1341
ErLALAGPQLrPEMSYPDR	-2.989

same assay, conditions: MCF7, CARM1 KO vs WT, three biological replicates each

Substance	Fold change KO/WT
APPGGLHAPrLSLEGAAR	-2.121
APPGGLHAPrLSLEGAArGAAEAK	-2.606
AVDLTKPYQNQQLSIrVPLR	-2.685
DFAFYNPrLQGK	-2.168
EELLrHQLLEK	-4.489
ErLALAAGPALrPDMSYAER	-2.368

same assay, conditions: MCF7, CARM1 knockout vs wild type, n = 3 each

Substance	Fold change KO/WT
APPVrYCIPGER	-5.161
AQPFAQPPGPWPLSSPGPrLVFNR	-4.7261
CAGFLEPTWLAAPPrLARPPR	-1.902
CAGFLEPTWLAAPPrLArPPrFYEAGEELTGPGAVAAAR	-3.713
CrQPAPPTSQPPrAQPFAQPPGPWPLSSPGPrLVFNR	-3.117
DPFSQALSrCQLQQAAALNAQHK	-2.1
DYFPPGDFPGPPPAPFAMrNVYPPrGFPPYLPPrPGFFPPPPHSEGR	-2.577
EGAEGVNGGEESVNLNDADEGFSSGASLSSQPIGTKPSSSSQrGSLR	-0.04765
ELAPrAHVLSK	-2.404

same assay, conditions: MCF7 CARM1 knockout vs wild type, 3 biological replicates each; values are on log2 scale

Substance	Fold change KO/WT
APVFPGrGSYSNR	-0.1545
APVFPGrGSYSNr	0.2723
APVFPGrGSYSNrGNYNR	0.06661
ASrGrGGLGPSWASANSGSGGSrGK	0.06985
AYGQQYWGQPGNrGGYRNFYDR	0.6249
AYGQQYWGQPGNrGGYrNFYDR	0.1386
EIrYSLLPFANESGTSAAAEVNR	-3.011
EVYQQQQYGSGGrGNR	0.5359
